Assay results: patent publication US20210100905A1, “APPLICATION OF COMPOUND OR TRADITIONAL CHINESE MEDICINE EXTRACT IN PREPARATION OF NUCLEIC ACID DELIVERY AGENT, AND RELATED PRODUCTS” (INSTITUTE OF BASIC MEDICAL SCIENCES CHINESE ACADEMY OF …, priority 2018, published 2021)

Assay: In vivo delivery experiment of lipid nucleic acid mixture (Example 13)
Parameters: species or system C57 mice
Details: oral administration, 6 hours; for delivery effect into mouse blood and tissues (heart, spleen, kidney or intestine) compared with POPC: FIG. 117a-146b, 100 μg lipid : 1 nmol sRNA; for delivery of small RNA (PGY-sRNA-26) into kidney / delivery of small RNA (PGY-sRNA-26) into spleen / delivery of small RNA (PGY-sRNA-26) into blood / delivery of small RNA (PGY-sRNA-26) into heart / delivery of small RNA (PGY-sRNA-26) into intestine: 100 μg lipid : 1 nmol sRNA per mouse, 90° C. 15 min
Procedure: 1. Experiment animals: C57 mice, male, approximately 6 weeks old, 20-24g. Mice were raised in the SPF room of the Animal Center of the Institute of Basic Medical Sciences of Chinese Academy of Medical Sciences. The mice were fasted for 12 hours before intragastric administration.
2. Preparation of the mixture of lipid and small RNA: the prepration was conducted on the basis of a dose of 100 μg lipid: lnmol single stranded small RNA PGY-sRNA-26 per mouse as follows: lnmol of each sRNA was dissolved with 500 μl DEPC water in a glass tube, 100 μg corresponding lipid solution No.33, No.35,No.37, No.42, No.43, No.44, No.45, No.46, No.47, No.48, No.49, No.50, No.51, No.52, No.53, No.54, No.55, No.56, No.57, No.58, No.59, No.60, No.61, No.62, No.65, No.66, No.67, No.68, No.69 or No.70 (lipid chloroform solution with a concentration as shown in Table 1-1) was added, pipetted to mix thoroughly. The solution was heated in water bath at 90° C. for 15 min, naturally cooled down, and was administered via gavage.
1) Tissue sampling and extraction of RNA: 6 hours after gavage in mice, 500 μl of blood was taken from the eyeball, and was added 1.5 ml Trizol Reagent LS to thoroughly mix and lyse. Tissue sampling: the mouse was sarcrified by breaking its neck, and the thoracic and abdominal cavities of the mouse was exposed to remove the heart/whole spleen/two kidneys/intestine (5 cm of upper end), which was immediately added 2 ml Trizol Reagent (purchased from Invitrogen) and homogenized until complete lysis with a tissue homogenizer.
2) Reverse transcription of sRNA to cDNA: Reverse Transcription Kit (High-Capacity cDNA Reverse Transcription Kits, Applied Biosystems, cat. no. 4368813), was used to reverse transcribe the total RNA to cDNA, and the reverse system was as follows: template RNA (150 ng/μL) 10 μL, 10× RT buffer, 2.0 μL, 25× dNTP Mix (100 mM) 0.8 μL, random primers 2.0 μL, the Multi Scribe™ reverse Transcriptase 1.0 RNase inhibitor 1.0 μL, nuclease-free H2O 3.2 μL. After a brief centrifugation, the reaction was loaded in a PCR reactor. The reaction conditions were as follows: (1) 25° C., 10 min; (2) 37° C., 120 min; (3) 85° C., 5 min; (4) 4° C., termination of the reaction. After the reaction, 20 μL RNase-free ddH2O was added to make up the final volume to 40 μL.
LightCycler 480 fluorescence quantitative PCR instrument was used, and the PCR reaction conditions were: 95° C. , 5 min for pre-denaturation, followed by the PCR amplification cycle: (1) 95° C., 10 s; (2) 55° C., 10 s; (3) 72° C., 20 s; a total of 40 cycles; 40° C. for 10 s in the end to cool down. The forward primer and reverse primer of the amplification reaction were designed and synthesized by Beijing Qing Ke New Industrial Biotechnology Co., Ltd. (U6 F primer: GTGCAGGGTCCGAGGT (SEQ ID NO: 24), PGY-sRNA-26F primer: […] (SEQ ID NO: 34), reverse primer miR all rev: GTGCACGCTCCGAGGT (SEQ ID NO: 26)).
3) The relative expression amount was calculated by the 2-ΔCt method.
The data were represented in the form of mean±SEM. The parameter difference between the experimental group and the control group was evaluated by unpaired t test. The data were statistically analyzed by GraphPad Prism software, and P<0.05 was considered statistically significant.

SMILES	delivery effect into mouse blood and tissues (heart, spleen, kidney or intestine) compared with POPC	delivery of small RNA (PGY-sRNA-26) into kidney	delivery of small RNA (PGY-sRNA-26) into spleen	delivery of small RNA (PGY-sRNA-26) into blood	delivery of small RNA (PGY-sRNA-26) into heart	delivery of small RNA (PGY-sRNA-26) into intestine
CCCCCC/C=C\CCCCCCCCCC(=O)OC[C@H](COP(=O)(O)OCC[N+](C)(C)C)OC(=O)CCCCCCC/C=C\CCCCCC (stereo in doubt) [No. 69, 1-vaccenoyl-2-palmitoleoyl-sn-glycero-3-phosphocholine]	significantly better than or equivalent to that of POPC	delivers small RNA	delivers small RNA	–	–	–
CCCCCCCCCCCCCCCCCC(=O)OCC(COC(=O)CCCCCCCCCCCCCCCCC)OC(=O)CCCCCCCCCCCCCCC [No. 33, 1,3-Stearin-2-Palmitin 1,3-Octadecanoyl-2-Palmitoyl-glycerol]	significantly better than or equivalent to that of POPC	delivers small RNA	–	delivers small RNA	delivers small RNA	–
CCCCC/C=C\C/C=C\CCCCCCCC(=O)OC[C@H](CO)OC(=O)CCCCCCC/C=C\C/C=C\CCCCC [No. 35, (2S)-1-hydroxy-3-[(9Z,12Z)-octadeca-9,12-dienoyloxy] propan-2-yl (9Z,12Z)-octadeca-9,12-dienoate]	significantly better than or equivalent to that of POPC	delivers small RNA	–	–	delivers small RNA	–
CC/C=C\C/C=C\C/C=C\CCCCCCCC(=O)OCC(O)COC(=O)CCCCCCC/C=C\C/C=C\CCCCC (stereo not drawn) [No. 45, 1-Linolein-3-Linolenin]	significantly better than or equivalent to that of POPC	delivers small RNA	delivers small RNA	–	delivers small RNA	delivers small RNA
CCCCCCCCCCCCCCCC(=O)N[C@@H](CO)[C@H](O)CCCCCCCCCCCCC [No. 53, C16 dihydroceramide (d16:0/16:0)]	significantly better than or equivalent to that of POPC	delivers small RNA	–	delivers small RNA	delivers small RNA	–
CCCCCCCCCCCCCCCCCC(=O)N[C@@H](CO)[C@H](O)CCCCCCCCCCCCCCCCC [No. 54, C18 dihydroceramide (d20:0/18:0)]	significantly better than or equivalent to that of POPC	delivers small RNA	–	delivers small RNA	–	–
CCCCCCCCCCCCCCCCCCC[C@@H](O)[C@H](CO)NC(=O)CCCCCCCCCCCCCCCCC [No. 55, C18 dihydroceramide (d22:0/18:0)]	significantly better than or equivalent to that of POPC	delivers small RNA	–	delivers small RNA	delivers small RNA	–
CC/C=C\C/C=C\C/C=C\CCCCCCCC(=O)OCC(COC(=O)CCCCCCCCCCCCCCC)OC(=O)CCCCCCC/C=C\C/C=C\CCCCC (stereo not drawn) [No. 56, Triglyceride (16:0/18:2/ 18:3)]	significantly better than or equivalent to that of POPC	–	–	delivers small RNA	delivers small RNA	–
CC/C=C\C/C=C\C/C=C\CCCCCCCC(=O)OCC(COC(=O)CCCCCCC/C=C\CCCCCCCC)OC(=O)CCCCCCC/C=C\C/C=C\CCCCC (stereo not drawn) [No. 57, Triglyceride (18:1/18:2/ 18:3)]	significantly better than or equivalent to that of POPC	delivers small RNA	–	–	–	–
CCCCCC/C=C\CCCCCCCC(=O)OC[C@H](COP(=O)(O)OCC)OC(=O)CCCCCCC/C=C\CCCCCC [No. 58, 1,2-dipalmitoleoyl-sn-glycero-3-phosphoethanol]	significantly better than or equivalent to that of POPC	–	–	–	delivers small RNA	delivers small RNA
CCCCCC/C=C\CCCCCCCC(=O)OC[C@H](COP(=O)(O)OCCN(C)C)OC(=O)CCCCCCCCCCCCC [No. 59, 1-palmitoleoyl-2-myristoyl-sn-glycero-3-phospho-ethanolamine-N,N-dimethyl]	significantly better than or equivalent to that of POPC	–	–	–	–	delivers small RNA
CCCCCCCC/C=C\CCCCCCCC(=O)OC[C@H](COP(=O)(O)OCCN(C)C)OC(=O)CCCCCCCCCCCCC [No. 61, 1-oleoyl-2-myristoyl-sn-glycero-3-phospho-ethanolamine-N,N-dimethyl]	significantly better than or equivalent to that of POPC	delivers small RNA	–	–	delivers small RNA	delivers small RNA
CCCC/C=C\CCCCCCCC(=O)O[C@H](COC(=O)CCCCCCCCCCCCCCCCCCC)COP(=O)(O)OCC[N+](C)(C)C [No. 65, 1-eicosanoyl-2-myristoleoyl-sn-glycero-3-phosphocholine]	significantly better than or equivalent to that of POPC	delivers small RNA	–	–	–	delivers small RNA
CC/C=C\C/C=C\C/C=C\CCCCCCCC(=O)OCC(COC(=O)CCCCCCCCCCCCCCCCC)OC(=O)CCCCCCC/C=C\C/C=C\CCCCC (stereo not drawn) [No. 66, Triglyceride (18:0/18:2/ 18:3)]	significantly better than or equivalent to that of POPC	–	–	delivers small RNA	delivers small RNA	delivers small RNA
CC/C=C\C/C=C\C/C=C\C/C=C\C/C=C\CCCC(=O)OCC(COC(=O)CCCCCCC/C=C\CCCCCCCC)OC(=O)CCCCCCC/C=C\C/C=C\CCCCC (stereo not drawn) [No. 67, Triglyceride (18:1/18:2 /20:5)]	significantly better than or equivalent to that of POPC	–	delivers small RNA	–	delivers small RNA	delivers small RNA
